The values below come from ChEMBL document CHEMBL3991601, “The target landscape of clinical kinase drugs” (Science, 2017).

The target of experiment [1] is T1, Ras-related protein Rab-27A (Homo sapiens, UniProt P51159).
T1 sequence (P51159 whole entry): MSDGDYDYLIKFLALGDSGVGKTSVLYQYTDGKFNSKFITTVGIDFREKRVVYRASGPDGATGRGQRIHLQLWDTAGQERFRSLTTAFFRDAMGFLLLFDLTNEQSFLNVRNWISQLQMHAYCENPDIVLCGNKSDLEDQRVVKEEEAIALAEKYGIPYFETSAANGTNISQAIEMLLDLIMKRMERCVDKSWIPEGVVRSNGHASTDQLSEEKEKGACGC

Experiment [2] concerns the target T2, Dual specificity mitogen-activated protein kinase kinase 6 (Homo sapiens, UniProt P52564).
T2 sequence (P52564 whole entry): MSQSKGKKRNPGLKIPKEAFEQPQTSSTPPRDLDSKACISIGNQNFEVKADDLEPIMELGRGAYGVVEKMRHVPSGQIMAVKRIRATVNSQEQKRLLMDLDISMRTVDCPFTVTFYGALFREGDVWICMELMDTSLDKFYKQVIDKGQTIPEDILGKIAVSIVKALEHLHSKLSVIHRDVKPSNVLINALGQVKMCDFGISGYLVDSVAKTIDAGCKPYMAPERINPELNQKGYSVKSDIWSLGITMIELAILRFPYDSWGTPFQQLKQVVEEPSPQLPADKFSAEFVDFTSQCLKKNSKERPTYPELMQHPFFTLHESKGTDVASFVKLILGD

The target of experiment [3] is Serine/threonine-protein kinase B-raf (Homo sapiens, UniProt P15056).
Sequence of Serine/threonine-protein kinase B-raf (P15056 whole entry): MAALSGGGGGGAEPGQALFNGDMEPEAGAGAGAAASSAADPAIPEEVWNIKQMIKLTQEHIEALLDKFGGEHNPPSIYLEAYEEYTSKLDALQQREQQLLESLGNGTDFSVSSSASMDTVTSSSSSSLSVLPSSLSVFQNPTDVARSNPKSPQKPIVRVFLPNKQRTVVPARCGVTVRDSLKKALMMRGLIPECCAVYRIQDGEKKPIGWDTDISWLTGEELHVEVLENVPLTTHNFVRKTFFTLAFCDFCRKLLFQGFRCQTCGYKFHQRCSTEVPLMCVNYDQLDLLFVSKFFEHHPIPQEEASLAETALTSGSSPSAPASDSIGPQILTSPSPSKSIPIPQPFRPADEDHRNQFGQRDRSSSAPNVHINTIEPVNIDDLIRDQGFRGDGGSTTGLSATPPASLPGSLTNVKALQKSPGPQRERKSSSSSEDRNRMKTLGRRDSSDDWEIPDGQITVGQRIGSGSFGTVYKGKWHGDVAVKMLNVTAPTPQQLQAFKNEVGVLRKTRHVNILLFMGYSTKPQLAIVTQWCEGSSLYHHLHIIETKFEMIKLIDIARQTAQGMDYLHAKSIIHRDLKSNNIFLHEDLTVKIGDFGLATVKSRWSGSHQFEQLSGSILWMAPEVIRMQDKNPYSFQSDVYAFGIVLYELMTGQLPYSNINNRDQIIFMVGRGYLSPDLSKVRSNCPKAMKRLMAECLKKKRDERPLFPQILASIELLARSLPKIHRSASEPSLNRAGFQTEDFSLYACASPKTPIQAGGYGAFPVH
In experiment [4] the target is Mitogen-activated protein kinase 7 (Homo sapiens, UniProt Q13164).
Sequence of Mitogen-activated protein kinase 7 (Q13164 whole entry): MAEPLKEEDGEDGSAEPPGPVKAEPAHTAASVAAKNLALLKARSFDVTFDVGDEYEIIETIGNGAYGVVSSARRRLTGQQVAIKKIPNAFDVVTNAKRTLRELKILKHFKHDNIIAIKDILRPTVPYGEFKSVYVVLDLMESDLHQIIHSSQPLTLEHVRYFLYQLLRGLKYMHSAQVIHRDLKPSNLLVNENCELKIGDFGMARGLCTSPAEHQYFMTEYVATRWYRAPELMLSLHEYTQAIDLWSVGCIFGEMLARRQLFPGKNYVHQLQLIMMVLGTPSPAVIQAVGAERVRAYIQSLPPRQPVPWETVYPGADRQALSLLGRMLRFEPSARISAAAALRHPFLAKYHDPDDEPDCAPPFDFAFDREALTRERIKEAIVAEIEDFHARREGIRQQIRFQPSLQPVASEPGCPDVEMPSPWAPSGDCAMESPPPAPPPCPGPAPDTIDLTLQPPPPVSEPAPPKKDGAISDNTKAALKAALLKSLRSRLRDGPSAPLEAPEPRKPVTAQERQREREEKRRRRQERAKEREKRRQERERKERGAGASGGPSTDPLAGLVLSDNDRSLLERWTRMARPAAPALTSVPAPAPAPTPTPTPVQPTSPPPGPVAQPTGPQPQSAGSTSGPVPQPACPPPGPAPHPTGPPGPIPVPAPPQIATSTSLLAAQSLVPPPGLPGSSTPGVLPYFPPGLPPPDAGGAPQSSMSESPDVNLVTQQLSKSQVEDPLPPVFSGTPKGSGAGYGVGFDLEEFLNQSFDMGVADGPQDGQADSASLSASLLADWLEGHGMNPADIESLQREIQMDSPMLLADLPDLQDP
The target in experiment [5] is Tyrosine-protein kinase Lyn (Homo sapiens, UniProt P07948).
Sequence of Tyrosine-protein kinase Lyn (P07948 whole entry): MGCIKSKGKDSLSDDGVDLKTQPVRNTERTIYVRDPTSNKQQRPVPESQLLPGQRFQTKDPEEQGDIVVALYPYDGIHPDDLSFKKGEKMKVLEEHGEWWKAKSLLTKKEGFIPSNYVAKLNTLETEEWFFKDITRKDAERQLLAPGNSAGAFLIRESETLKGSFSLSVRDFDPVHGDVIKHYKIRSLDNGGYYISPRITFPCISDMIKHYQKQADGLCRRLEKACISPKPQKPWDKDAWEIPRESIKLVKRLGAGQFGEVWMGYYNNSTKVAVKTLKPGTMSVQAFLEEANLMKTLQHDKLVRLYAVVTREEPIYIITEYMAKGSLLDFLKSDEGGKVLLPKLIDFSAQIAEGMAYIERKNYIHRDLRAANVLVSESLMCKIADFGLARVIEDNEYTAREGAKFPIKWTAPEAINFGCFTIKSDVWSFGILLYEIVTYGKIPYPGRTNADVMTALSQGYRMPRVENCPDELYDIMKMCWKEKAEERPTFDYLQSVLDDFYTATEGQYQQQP
Another experiment has as its target T3, dCTP pyrophosphatase 1 (Homo sapiens, UniProt Q9H773).
T3 sequence (Q9H773 whole entry): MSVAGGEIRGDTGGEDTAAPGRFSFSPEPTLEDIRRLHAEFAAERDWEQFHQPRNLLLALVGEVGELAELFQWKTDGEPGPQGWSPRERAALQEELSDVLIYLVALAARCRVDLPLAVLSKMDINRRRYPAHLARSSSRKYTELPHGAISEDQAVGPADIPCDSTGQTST

Experiment [6] deals with T4, Bone morphogenetic protein receptor type-2 (Homo sapiens, UniProt Q13873).
T4 sequence (Q13873 whole entry): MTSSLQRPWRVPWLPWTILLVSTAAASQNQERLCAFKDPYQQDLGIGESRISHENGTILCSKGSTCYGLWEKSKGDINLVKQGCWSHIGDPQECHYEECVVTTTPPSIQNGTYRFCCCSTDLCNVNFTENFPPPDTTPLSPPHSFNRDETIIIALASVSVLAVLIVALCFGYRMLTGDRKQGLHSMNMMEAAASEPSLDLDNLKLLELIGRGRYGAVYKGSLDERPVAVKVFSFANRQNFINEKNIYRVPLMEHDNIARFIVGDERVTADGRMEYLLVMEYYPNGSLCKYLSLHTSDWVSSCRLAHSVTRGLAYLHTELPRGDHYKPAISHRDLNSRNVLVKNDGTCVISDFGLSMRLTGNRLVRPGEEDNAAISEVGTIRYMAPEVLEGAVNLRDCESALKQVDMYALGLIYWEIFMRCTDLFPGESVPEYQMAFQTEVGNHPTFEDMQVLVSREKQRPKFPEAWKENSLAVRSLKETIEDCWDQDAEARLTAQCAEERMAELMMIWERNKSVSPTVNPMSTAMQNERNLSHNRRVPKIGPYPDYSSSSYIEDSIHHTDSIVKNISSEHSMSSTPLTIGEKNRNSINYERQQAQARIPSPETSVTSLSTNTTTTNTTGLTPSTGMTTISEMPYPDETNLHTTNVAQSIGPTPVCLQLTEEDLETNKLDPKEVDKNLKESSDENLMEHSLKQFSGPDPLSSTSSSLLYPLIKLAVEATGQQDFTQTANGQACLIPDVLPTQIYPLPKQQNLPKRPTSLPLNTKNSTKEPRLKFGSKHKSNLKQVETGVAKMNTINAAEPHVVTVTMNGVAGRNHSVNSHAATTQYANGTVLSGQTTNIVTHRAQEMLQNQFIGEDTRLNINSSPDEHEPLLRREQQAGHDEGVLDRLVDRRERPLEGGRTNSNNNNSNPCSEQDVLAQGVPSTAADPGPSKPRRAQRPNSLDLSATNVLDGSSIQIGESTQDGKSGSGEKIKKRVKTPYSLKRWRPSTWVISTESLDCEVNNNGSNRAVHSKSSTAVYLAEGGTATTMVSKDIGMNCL

For experiment [7], the target named is T5, Peroxisomal acyl-coenzyme A oxidase 1 (Homo sapiens, UniProt Q15067).
T5 sequence (Q15067 whole entry): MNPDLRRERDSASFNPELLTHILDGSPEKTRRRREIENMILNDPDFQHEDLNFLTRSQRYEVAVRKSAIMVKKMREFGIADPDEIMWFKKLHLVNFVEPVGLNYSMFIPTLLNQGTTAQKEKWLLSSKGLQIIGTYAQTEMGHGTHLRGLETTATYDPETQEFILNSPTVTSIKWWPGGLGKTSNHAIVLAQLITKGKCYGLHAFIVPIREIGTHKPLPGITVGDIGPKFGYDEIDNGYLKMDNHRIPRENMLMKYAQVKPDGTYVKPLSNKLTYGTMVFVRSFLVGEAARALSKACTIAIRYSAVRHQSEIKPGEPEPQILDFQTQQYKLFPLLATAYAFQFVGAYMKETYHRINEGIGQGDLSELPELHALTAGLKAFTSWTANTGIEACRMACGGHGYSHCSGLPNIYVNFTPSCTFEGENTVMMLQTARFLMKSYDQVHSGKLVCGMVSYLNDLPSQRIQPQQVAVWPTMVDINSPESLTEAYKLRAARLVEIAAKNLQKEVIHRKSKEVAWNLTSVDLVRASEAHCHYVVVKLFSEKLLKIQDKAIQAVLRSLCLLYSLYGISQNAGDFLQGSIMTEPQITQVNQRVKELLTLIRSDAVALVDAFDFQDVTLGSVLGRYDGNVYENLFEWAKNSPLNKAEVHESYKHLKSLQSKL

Experiment [8] concerns the target Insulin-like growth factor 1 receptor (Homo sapiens, UniProt P08069).
In experiment [9] the target is Interleukin-1 receptor-associated kinase 1 (Homo sapiens, UniProt P51617).
Sequence of Interleukin-1 receptor-associated kinase 1 (P51617 whole entry): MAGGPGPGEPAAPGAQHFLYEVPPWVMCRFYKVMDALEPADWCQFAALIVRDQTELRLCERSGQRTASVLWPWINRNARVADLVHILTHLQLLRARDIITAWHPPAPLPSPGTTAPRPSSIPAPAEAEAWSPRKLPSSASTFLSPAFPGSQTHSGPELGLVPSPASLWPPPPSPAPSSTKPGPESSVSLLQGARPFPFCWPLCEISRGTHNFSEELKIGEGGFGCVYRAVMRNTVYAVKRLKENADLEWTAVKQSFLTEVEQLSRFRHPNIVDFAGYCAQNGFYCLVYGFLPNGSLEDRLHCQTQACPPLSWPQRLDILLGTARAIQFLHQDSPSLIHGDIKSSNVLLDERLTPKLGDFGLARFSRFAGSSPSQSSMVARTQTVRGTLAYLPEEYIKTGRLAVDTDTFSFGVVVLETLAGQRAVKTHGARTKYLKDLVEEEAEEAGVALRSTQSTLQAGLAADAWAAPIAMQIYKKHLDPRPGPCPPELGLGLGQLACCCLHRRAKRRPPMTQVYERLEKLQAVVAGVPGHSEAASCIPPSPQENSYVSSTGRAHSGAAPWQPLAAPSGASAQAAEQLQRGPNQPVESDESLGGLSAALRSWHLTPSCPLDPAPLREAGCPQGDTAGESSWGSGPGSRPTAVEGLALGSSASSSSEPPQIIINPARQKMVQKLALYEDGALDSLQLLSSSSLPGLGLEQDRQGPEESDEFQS
Experiment [10] concerns the target Tyrosine-protein kinase SYK (Homo sapiens, UniProt P43405).

Active and inactive are the calls of the source.
Note: in the data inactive means no Kd found up to 30 µM.

Sequence of Insulin-like growth factor 1 receptor (P08069 31-736 limits assumed): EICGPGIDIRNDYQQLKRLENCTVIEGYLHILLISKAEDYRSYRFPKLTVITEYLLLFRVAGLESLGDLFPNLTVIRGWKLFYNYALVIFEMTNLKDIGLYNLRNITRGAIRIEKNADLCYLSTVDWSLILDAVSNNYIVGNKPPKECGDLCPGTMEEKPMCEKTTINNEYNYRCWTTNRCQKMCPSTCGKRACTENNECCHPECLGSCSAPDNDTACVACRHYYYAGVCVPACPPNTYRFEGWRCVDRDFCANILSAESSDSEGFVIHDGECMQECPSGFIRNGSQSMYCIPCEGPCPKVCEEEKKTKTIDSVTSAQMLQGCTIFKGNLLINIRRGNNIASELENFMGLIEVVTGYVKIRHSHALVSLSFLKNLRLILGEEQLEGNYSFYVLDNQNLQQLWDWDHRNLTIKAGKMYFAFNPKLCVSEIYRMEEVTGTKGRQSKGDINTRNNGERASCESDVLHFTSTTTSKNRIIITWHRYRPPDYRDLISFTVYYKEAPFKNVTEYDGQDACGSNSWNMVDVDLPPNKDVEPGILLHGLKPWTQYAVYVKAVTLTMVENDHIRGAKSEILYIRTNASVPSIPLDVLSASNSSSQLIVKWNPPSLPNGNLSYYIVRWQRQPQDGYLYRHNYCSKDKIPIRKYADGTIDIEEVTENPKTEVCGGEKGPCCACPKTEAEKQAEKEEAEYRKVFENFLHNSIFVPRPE
Sequence of Insulin-like growth factor 1 receptor (P08069 741-1367 limits assumed): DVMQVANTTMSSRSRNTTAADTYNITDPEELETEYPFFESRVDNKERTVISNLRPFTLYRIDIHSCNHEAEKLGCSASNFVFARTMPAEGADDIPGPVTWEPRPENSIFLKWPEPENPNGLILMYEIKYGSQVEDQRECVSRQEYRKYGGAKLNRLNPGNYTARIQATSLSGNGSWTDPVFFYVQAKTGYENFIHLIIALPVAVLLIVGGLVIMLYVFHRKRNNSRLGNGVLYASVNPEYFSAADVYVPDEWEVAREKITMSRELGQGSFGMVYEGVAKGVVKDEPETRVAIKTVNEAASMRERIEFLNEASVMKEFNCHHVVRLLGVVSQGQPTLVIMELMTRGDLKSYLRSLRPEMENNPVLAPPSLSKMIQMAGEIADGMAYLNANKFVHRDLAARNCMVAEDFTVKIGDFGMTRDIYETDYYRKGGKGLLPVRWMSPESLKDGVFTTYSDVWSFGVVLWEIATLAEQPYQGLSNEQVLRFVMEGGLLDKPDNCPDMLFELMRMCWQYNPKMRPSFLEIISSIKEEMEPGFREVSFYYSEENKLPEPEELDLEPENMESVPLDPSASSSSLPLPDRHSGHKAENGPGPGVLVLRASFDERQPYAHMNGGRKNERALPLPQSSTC

On to `COc1cc(Nc2ncc3c(n2)-c2ccc(Cl)cc2C(c2c(F)cccc2OC)=NC3)ccc1C(=O)O` [ALISERTIB], for which the Kd (in experiment [1]; in experiment [2]; in [3]; in experiment [4]; in experiment [5]; at dCTP pyrophosphatase 1) was > 30 µM (inactive) in each case. In addition, the Kd in experiment [6] and in experiment [7] was > 30 µM (inactive) throughout.
For `Cc1nc(NC(=O)N2CCC[C@H]2C(N)=O)sc1-c1ccnc(C(C)(C)C(F)(F)F)c1` [ALPELISIB], the Kd in [8], in [2], in experiment [9], in [3], in experiment [4] and in [5] was > 30 µM (inactive) each time. The Kd (at dCTP pyrophosphatase 1; in experiment [10]; in [6]; in [7]) was > 30 µM (inactive) each time.
On to `O=C(Nc1c[nH]nc1-c1nc2cc(CN3CCOCC3)ccc2[nH]1)NC1CC1` [AT-9283], for which the Kd in experiment [8] is > 30 µM (inactive); in experiment [1] it was > 30 µM (inactive); in experiment [2], 3.54 µM (active); in experiment [9] it was > 30 µM (inactive); in [3], > 30 µM (inactive); in [4] it was > 30 µM (inactive). Moreover, the Kd at dCTP pyrophosphatase 1 is > 30 µM (inactive); in experiment [10], 0.116 µM (active); in experiment [6] it was 0.043 µM (active); in [7] it was > 30 µM (inactive).
On to `Cc1cc(Nc2ncc(Cl)c(Nc3ccccc3S(=O)(=O)C(C)C)n2)c(OC(C)C)cc1C1CCNCC1` [CERITINIB], for which the Kd is > 30 µM (inactive) in experiment [1]; > 30 µM (inactive) in experiment [2]; > 30 µM (inactive) in experiment [9]; > 30 µM (inactive) in experiment [3]; 9.85 µM (active) in experiment [4]; > 30 µM (inactive) in experiment [5]. For the same molecule, the Kd (on dCTP pyrophosphatase 1; in [10]; in [6]; in experiment [7]) was > 30 µM (inactive) each time.
For the molecule `Cc1[nH]c(/C=C2\C(=O)Nc3ccccc32)c(C)c1CCC(=O)O` [ORANTINIB], the Kd in experiment [1] is > 30 µM (inactive); in experiment [2], > 30 µM (inactive); in [3], > 30 µM (inactive); in experiment [4] it was > 30 µM (inactive); on dCTP pyrophosphatase 1, > 30 µM (inactive); in [6], 0.019 µM (active). Moreover, the Kd in experiment [7] is > 30 µM (inactive).
In the case of `Cc1nc(Nc2n[nH]c3c2CN(C(=O)N[C@H](CN(C)C)c2ccccc2)C3(C)C)c2sccc2n1` [PF-03758309], the Kd in experiment [8] is > 30 µM (inactive); in experiment [1], > 30 µM (inactive); in [2], > 30 µM (inactive); in [9], > 30 µM (inactive); in [3], > 30 µM (inactive); in experiment [4], 3.89 µM (active). Further, the Kd (in [5]; on dCTP pyrophosphatase 1; in [10]; in experiment [6]) was > 30 µM (inactive) in each case.
In the case of `CC(=O)NCC(=O)N1[C@@H]2CC[C@H]1c1ccc(Nc3ncc(C(F)(F)F)c(NC4CCC4)n3)cc12` [PF-03814735], the Kd is > 30 µM (inactive) in experiment [1]; > 30 µM (inactive) in experiment [2]; > 30 µM (inactive) in experiment [3]; 2.96 µM in experiment [4]; > 30 µM (inactive) in [5]; > 30 µM (inactive) at dCTP pyrophosphatase 1. The Kd is 0.008 µM in [6] and > 30 µM (inactive) in experiment [7].
For `CO[C@H]1C[C@@H]2CC[C@@H](C)[C@@](O)(O2)C(=O)C(=O)N2CCCC[C@H]2C(=O)O[C@H]([C@H](C)C[C@@H]2CC[C@@H](OP(C)(C)=O)[C@H](OC)C2)CC(=O)[C@H](C)/C=C(\C)[C@@H](O)[C@@H](OC)C(=O)[C@H](C)C[C@H](C)/C=C/C=C/C=C/1C` [RIDAFOROLIMUS], the Kd in experiment [8], in experiment [1], in experiment [2], in experiment [9], in experiment [3] and in experiment [4] was > 30 µM (inactive) in each case. Moreover, the Kd (in experiment [5]; at dCTP pyrophosphatase 1; in experiment [10]; in experiment [6]) was > 30 µM (inactive) in each case.
Regarding `O=C1NC(=O)[C@@H](c2cn3c4c(cccc24)CCC3)[C@@H]1c1c[nH]c2ccccc12` [TIVANTINIB], the Kd in experiment [8], in experiment [1], in [2], in [9], in [3] and in experiment [4] was > 30 µM (inactive) each time. For the same molecule, the Kd (in [5]; at dCTP pyrophosphatase 1; in experiment [10]; in experiment [6]) was > 30 µM (inactive) throughout.
Take `Cn1ncc(Cl)c1-c1cc(C(=O)N[C@H](CN)Cc2ccc(F)c(F)c2)oc1Cl` [UPROSERTIB]: the Kd in experiment [8], in experiment [1], in experiment [2], in experiment [9], in experiment [3] and in experiment [5] was > 30 µM (inactive) each time. In addition, the Kd (on dCTP pyrophosphatase 1; in [10]; in experiment [6]; in [7]) was > 30 µM (inactive) throughout.
With `CC(C)c1cc(CNc2nc(Nc3cc(C4CC4)[nH]n3)cc(N3CCN(C)CC3)n2)on1` [XL-228], the Kd in experiment [1] is > 30 µM (inactive); in [2], > 30 µM (inactive); in experiment [9] it was > 30 µM (inactive); in experiment [3], > 30 µM (inactive); in experiment [4], > 30 µM (inactive); in experiment [5], 1.33 µM (active). In addition, the Kd (at dCTP pyrophosphatase 1; in experiment [10]; in [6]; in [7]) was > 30 µM (inactive) throughout.
